Laboratory results from the supplement of paper PMC10307832.

Legend:
Test in all cases: relative viability (nuclei count vs DMSO), 5 days (fraction); higher = more cells survive
[1] = system: NCI-H2347
How it was run: (§1)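 Lung cancer cell lines were pin-tool dosed in 1536-well plates on the day after seeding, with either a lone drug or a fixed anchor-drug dose plus five library-drug doses (not always all listed) in √10 steps. Nuclei were counted on 4× images after 5 days. Relative viability is the ratio of treated-well to vehicle-well nuclei counts, with each value a median of duplicate plates.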

[2] = system: NCI-H358
How it was run: as §1

[3] = system: NCI-H460
How it was run: as §1

[4] = system: SW 1573
How it was run: as §1

[5] = system: HCC-78
How it was run: as §1

[6] = system: RERF-LC-KJ
How it was run: as §1

[7] = system: NCI-H1915
How it was run: as §1

[8] = system: LXF-289
How it was run: as §1

[9] = system: HCC-15
How it was run: as §1

[10] = system: NCI-H2126
How it was run: as §1

[11] = system: NCI-H2228
How it was run: as §1

[12] = system: A-427
How it was run: as §1

[13] = system: LC-2-ad
How it was run: as §1

[14] = system: SK-LU-1
How it was run: as §1

[15] = system: PC-3 [JPC-3]
How it was run: as §1

[16] = system: NCI-H647
How it was run: as §1

[17] = system: NCI-H1755
How it was run: as §1

[18] = system: LOU-NH91
How it was run: as §1

[19] = system: NCI-H1792
How it was run: as §1

[20] = system: NCI-H1734
How it was run: as §1

[21] = system: HOP-62
How it was run: as §1

[22] = system: NCI-H1975
How it was run: as §1

**Q.** What does the source list for `Clc1ccc(Nc2nnc(Cc3ccncc3)c3ccccc23)cc1` [Vatalanib] + C[C@@H](Oc1cc(-c2cnn(C3CCNCC3)c2)cnc1N)c1c(Cl)ccc(F)c1Cl [Crizotinib] (partner 1 µM)?
**A.** relative viability ([1]; first compound 0.04 µM): 0.642; relative viability ([1]; first compound 0.1265 µM): 0.69; relative viability ([1]; first compound 0.4 µM): 0.654; relative viability ([1]; first compound 1.265 µM): 0.817; relative viability ([1]; first compound 4 µM): 0.732; relative viability ([2]; first compound 0.04 µM): 0.641; relative viability ([2]; first compound 0.1265 µM): 0.522; relative viability ([2]; first compound 0.4 µM): 0.8; relative viability ([2]; first compound 1.265 µM): 0.585; relative viability ([2]; first compound 4 µM): 0.602; relative viability ([3]; first compound 0.04 µM): 0.878; relative viability ([3]; first compound 0.1265 µM): 0.827; relative viability ([3]; first compound 0.4 µM): 1.21; relative viability ([3]; first compound 1.265 µM): 0.748; relative viability ([3]; first compound 4 µM): 0.856; relative viability ([4]; first compound 0.04 µM): 0.918; relative viability ([4]; first compound 0.1265 µM): 0.721; relative viability ([4]; first compound 0.4 µM): 0.942; relative viability ([4]; first compound 1.265 µM): 0.627; relative viability ([4]; first compound 4 µM): 0.817; relative viability ([5]; first compound 0.04 µM): 0.318; relative viability ([5]; first compound 0.1265 µM): 0.324; relative viability ([5]; first compound 0.4 µM): 0.35; relative viability ([5]; first compound 4 µM): 0.306; relative viability ([6]; first compound 0.04 µM): 0.881; relative viability ([6]; first compound 0.1265 µM): 0.766; relative viability ([6]; first compound 0.4 µM): 0.88; relative viability ([6]; first compound 1.265 µM): 0.792; relative viability ([6]; first compound 4 µM): 0.799; relative viability ([7]; first compound 0.04 µM): 0.939; relative viability ([7]; first compound 0.1265 µM): 0.869; relative viability ([7]; first compound 0.4 µM): 0.885; relative viability ([7]; first compound 1.265 µM): 0.92; relative viability ([7]; first compound 4 µM): 0.918; relative viability ([8]; first compound 0.04 µM): 0.665; relative viability ([8]; first compound 0.1265 µM): 0.743; relative viability ([8]; first compound 0.4 µM): 0.807; relative viability ([8]; first compound 1.265 µM): 0.717; relative viability ([8]; first compound 4 µM): 0.78; relative viability ([9]; first compound 0.04 µM): 0.9; relative viability ([9]; first compound 0.1265 µM): 0.768; relative viability ([9]; first compound 0.4 µM): 0.79; relative viability ([9]; first compound 1.265 µM): 0.812; relative viability ([9]; first compound 4 µM): 0.841; relative viability ([10]; first compound 0.04 µM): 0.977; relative viability ([10]; first compound 0.1265 µM): 1.03; relative viability ([10]; first compound 0.4 µM): 1.05; relative viability ([10]; first compound 1.265 µM): 1.07; relative viability ([10]; first compound 4 µM): 0.992; relative viability ([11]; first compound 0.04 µM): 0.332; relative viability ([11]; first compound 0.1265 µM): 0.496; relative viability ([11]; first compound 0.4 µM): 0.499; relative viability ([11]; first compound 1.265 µM): 0.432; relative viability ([11]; first compound 4 µM): 0.496; relative viability ([12]; first compound 0.04 µM): 1.03; relative viability ([12]; first compound 0.1265 µM): 0.891; relative viability ([12]; first compound 0.4 µM): 0.994; relative viability ([12]; first compound 1.265 µM): 0.879; relative viability ([12]; first compound 4 µM): 0.948; relative viability ([13]; first compound 0.04 µM): 0.515; relative viability ([13]; first compound 0.1265 µM): 0.436; relative viability ([13]; first compound 1.265 µM): 0.456; relative viability ([13]; first compound 4 µM): 0.458; relative viability ([14]; first compound 0.04 µM): 0.923; relative viability ([14]; first compound 0.1265 µM): 0.898; relative viability ([14]; first compound 0.4 µM): 1.02; relative viability ([14]; first compound 1.265 µM): 1.06; relative viability ([14]; first compound 4 µM): 0.696; relative viability ([15]; first compound 0.04 µM): 0.978; relative viability ([15]; first compound 0.1265 µM): 0.872; relative viability ([15]; first compound 0.4 µM): 0.967; relative viability ([15]; first compound 1.265 µM): 0.937; relative viability ([15]; first compound 4 µM): 0.949; relative viability ([16]; first compound 0.04 µM): 0.92; relative viability ([16]; first compound 0.1265 µM): 1.07; relative viability ([16]; first compound 0.4 µM): 1.31; relative viability ([16]; first compound 1.265 µM): 0.977; relative viability ([16]; first compound 4 µM): 0.918; relative viability ([17]; first compound 0.04 µM): 0.886; relative viability ([17]; first compound 0.1265 µM): 0.821; relative viability ([17]; first compound 0.4 µM): 0.942; relative viability ([17]; first compound 1.265 µM): 0.802; relative viability ([17]; first compound 4 µM): 0.773; relative viability ([18]; first compound 0.04 µM): 0.728; relative viability ([18]; first compound 0.1265 µM): 0.708; relative viability ([18]; first compound 0.4 µM): 0.674; relative viability ([18]; first compound 1.265 µM): 0.718; relative viability ([18]; first compound 4 µM): 0.726; relative viability ([19]; first compound 0.04 µM): 0.945; relative viability ([19]; first compound 0.1265 µM): 0.972; relative viability ([19]; first compound 0.4 µM): 0.921; relative viability ([19]; first compound 1.265 µM): 0.912; relative viability ([19]; first compound 4 µM): 0.98; relative viability ([20]; first compound 0.04 µM): 0.714; relative viability ([20]; first compound 0.1265 µM): 0.645; relative viability ([20]; first compound 0.4 µM): 0.796; relative viability ([20]; first compound 1.265 µM): 0.694; relative viability ([20]; first compound 4 µM): 0.57; relative viability ([21]; first compound 0.04 µM): 0.921; relative viability ([21]; first compound 0.4 µM): 0.948; relative viability ([21]; first compound 1.265 µM): 0.911; relative viability ([21]; first compound 4 µM): 0.904; relative viability ([22]; first compound 0.04 µM): 0.946; relative viability ([22]; first compound 0.1265 µM): 0.856; relative viability ([22]; first compound 0.4 µM): 0.959; relative viability ([22]; first compound 1.265 µM): 0.845; relative viability ([22]; first compound 4 µM): 0.821
